Reference: ChEMBL document CHEMBL5550198, “Impact of atropisomerism on a non-steroidal glucocorticoid receptor agonist” (RSC Med Chem, 2024)

Legend:
Glucocorticoid receptor = molecular target: T1, Glucocorticoid receptor (Homo sapiens, UniProt P04150); assay: Agonist activity at glucocorticoid receptor (unknown origin) incubated for 24 hrs by cell based microplate analysis
T1 sequence (P04150 whole entry): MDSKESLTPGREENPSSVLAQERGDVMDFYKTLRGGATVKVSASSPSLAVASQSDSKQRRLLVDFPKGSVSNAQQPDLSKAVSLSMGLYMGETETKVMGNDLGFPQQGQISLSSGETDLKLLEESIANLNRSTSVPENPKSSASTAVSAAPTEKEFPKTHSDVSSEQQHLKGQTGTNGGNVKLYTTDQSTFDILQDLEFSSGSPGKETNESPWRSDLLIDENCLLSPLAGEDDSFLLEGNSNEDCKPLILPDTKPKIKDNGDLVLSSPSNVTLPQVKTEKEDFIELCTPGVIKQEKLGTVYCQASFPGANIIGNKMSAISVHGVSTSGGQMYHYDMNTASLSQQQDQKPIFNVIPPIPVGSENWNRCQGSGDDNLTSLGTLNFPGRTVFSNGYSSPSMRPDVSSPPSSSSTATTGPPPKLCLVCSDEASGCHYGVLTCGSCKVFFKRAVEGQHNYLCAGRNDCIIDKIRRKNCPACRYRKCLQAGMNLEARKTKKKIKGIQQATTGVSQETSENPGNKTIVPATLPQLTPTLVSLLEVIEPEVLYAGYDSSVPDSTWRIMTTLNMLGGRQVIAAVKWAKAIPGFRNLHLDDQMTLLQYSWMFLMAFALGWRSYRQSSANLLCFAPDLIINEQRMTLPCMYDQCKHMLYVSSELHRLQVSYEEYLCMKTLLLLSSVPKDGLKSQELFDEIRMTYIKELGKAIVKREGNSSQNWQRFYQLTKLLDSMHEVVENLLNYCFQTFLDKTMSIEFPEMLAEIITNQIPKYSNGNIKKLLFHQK

[1] = Retention time of the compound by HPLC analysis; type: physicochemical

| SMILES | EC50 (Glucocorticoid receptor) [nM] | Retention_time [1] [min] |
| --- | --- | --- |
| CCN(C[C@@](O)(CNC(=O)c1cnn(-c2ccc(F)cc2)c1N)C(F)(F)F)C(=O)c1c(C)cccc1F | – | 2.279 |
| CCN(C[C@@](O)(CNC(=O)c1cnn(-c2ccc(F)cc2)c1N)C(F)(F)F)C(=O)c1c(F)cccc1F | 5 | 2.228 |
| CCN(C[C@@](O)(CNC(=O)c1cnn(-c2ccc(F)cc2)c1N)C(F)(F)F)C(=O)c1ccccc1C | – | 2.179 |
| CCN(C[C@@](O)(CNC(=O)c1cnn(-c2ccc(F)cc2)c1N)C(F)(F)F)C(=O)c1ccccc1Cl | – | 2.238 |
| CCN(C[C@@](O)(CNC(=O)c1cnn(-c2ccc(F)cc2)c1N)C(F)(F)F)C(=O)c1c(C)cccc1C | – | 2.349 |
| CCN(C[C@@](O)(CNC(=O)c1cnn(-c2ccc(F)cc2)c1N)C(F)(F)F)C(=O)c1ccccc1F | 26 | 2.249 |
| CCN(C[C@@](O)(CNC(=O)c1cnn(-c2ccc(F)cc2)c1N)C(F)(F)F)C(=O)c1ccccc1 | 78 | 2.163 |

More lines, now with the values ahead:

| EC50 (Glucocorticoid receptor) [nM] | Retention_time [1] [min] | SMILES |
| --- | --- | --- |
| 2 | 2.337 | CCN(C[C@@](O)(CNC(=O)c1cnn(-c2ccc(F)cc2)c1N)C(F)(F)F)C(=O)c1c(Cl)cccc1Cl |
| – | 3.06 | CCN(C[C@](O)(CNC(=O)c1cnn(-c2ccc(F)cc2)c1N)C(F)(F)F)C(=O)c1c(Cl)cccc1Cl |
| 2 | 2.979 | CCN(C[C@@](O)(CNC(=O)c1cnn(-c2ccc(F)cc2)c1N)C(F)(F)F)C(=O)c1c(F)cccc1Cl |
| 4 | 2.353 | CCc1ccccc1C(=O)N(CC)C[C@@](O)(CNC(=O)c1cnn(-c2ccc(F)cc2)c1N)C(F)(F)F |
| 122 | 2.544 | CCc1cccc(CC)c1C(=O)N(CC)C[C@@](O)(CNC(=O)c1cnn(-c2ccc(F)cc2)c1N)C(F)(F)F |
| 2 | 2.314 | CCN(C[C@@](O)(CNC(=O)c1cnn(-c2ccc(F)cc2)c1N)C(F)(F)F)C(=O)c1c(C)cccc1Cl (stereo in doubt; 10a) |
| 4 | 2.36 | CCN(C[C@@](O)(CNC(=O)c1cnn(-c2ccc(F)cc2)c1N)C(F)(F)F)C(=O)c1c(C)cccc1Cl (stereo in doubt; 10b) |
| – | 2.394 | CCc1cccc(C)c1C(=O)N(CC)C[C@@](O)(CNC(=O)c1cnn(-c2ccc(F)cc2)c1N)C(F)(F)F (stereo in doubt; 13a) |
| – | 2.417 | CCc1cccc(C)c1C(=O)N(CC)C[C@@](O)(CNC(=O)c1cnn(-c2ccc(F)cc2)c1N)C(F)(F)F (stereo in doubt; 13b) |
| 9 | 2.39 | CCc1cccc(Cl)c1C(=O)N(CC)C[C@@](O)(CNC(=O)c1cnn(-c2ccc(F)cc2)c1N)C(F)(F)F (stereo in doubt; 14a) |
| 0.5 | 2.396 | CCc1cccc(Cl)c1C(=O)N(CC)C[C@@](O)(CNC(=O)c1cnn(-c2ccc(F)cc2)c1N)C(F)(F)F (stereo in doubt; 14b) |
